The source of these data is the NIST ThermoML archive (doi:10.1021/je030216r).

Numbers after ± are expanded uncertainties.

The nature of series [1]: Boiling temperature at pressure P. To be noted: 100 kPa; Liquid; Ebulliometric method (Recirculating still).
Series [2] is described as follows: refractive index (Na D-line) (dimensionless). As to conditions: 293.15 K; 101.33 kPa; Liquid; Standard Abbe refractometry.
The conditions of series [3]: 293.15 K; 101.33 kPa; Liquid.

With `OCCO` [1,2-ethanediol], the “Boiling temperature at pressure P” value in series [1] came out at 197.48 ± 0.2 °C. The refractive index in series [2] is given as 1.4328 ± 0.0008. Further, in series [3], the mass density was found to be 1113.6 ± 5.1 kg/m3.
On the same counts, the results for `CC(C)CCO` [3-methylbutan-1-ol] are 131.30 ± 0.2 °C, 1.4054 ± 0.0007 and 808.1 ± 5 kg/m3.
Regarding `CCC(C)CO` (centres undefined) [2-methyl-1-butanol], the “Boiling temperature at pressure P” value in series [1] amounted to 128.40 ± 0.2 °C. In addition, in series [2], the refractive index was determined as 1.4095 ± 0.0007. In series [3], the mass density was determined as 817.8 ± 5 kg/m3.
